According to US6841684B2, “Imidiazoles having reduced side effects” (Allergan, Inc., priority 1997, dated 2005):
Read-outs that look alike come from different tables or passages of the source.

What was measured:
[1] = system: conscious cynomolgus monkeys; assay: Cardiovascular side effects (blood pressure, heart rate) after i.v. administration; type: in vivo, cynomolgus monkey; conditions: for Maximum % Decrease From Pretreatment Levels, Heart Rate / Maximum % Decrease From Pretreatment Levels, Mean Arterial Blood Pressure: up to 6 hours, + with * = increase from base levels
Description: Cardiovascular measurements were made in a different group of monkeys using a BP 100S automated sphygmomanometer (Nippon Colin,. Japan).

[2] = system: cynomolgus monkeys with sustained elevated IOP; assay: IOP lowering in conscious monkeys, eyes made hypertensive by argon laser photocoagulation; type: in vivo, cynomolgus monkey; conditions: Macaca fascicularis, topical, single 50 μl eye drop, up to 6 hours, read-out: Maximum % Decrease From Pretreatment Levels Hypertensive Eye (IOP); for inhibition in vivo at 0.1 %: ocular dose 0.1%; for inhibition in vivo at 0.3 %: ocular dose 0.3%; for inhibition in vivo at 1 %: ocular dose 1%; for inhibition in vivo at 3 %: ocular dose 3%
Description: Measurements of IOP were made in fully conscious female cynomolgus monkeys weighing 3-4 kg with sustained elevated IOP that was produced in the right eye by argon laser photocoagulation of the trabecular meshwork. Animals were usable for experiments 2 months following surgery. During the experiments, monkeys sat in specially designed chairs (Primate Products, San Francisco), and were fed orange juice and fruit as needed. A 30R model Digilab pneumatonometer (Alcon, Tex.) was used to measure IOP.
Twenty five μl of an anesthetic (proparacaine) was topically applied to each monkey before IOP measurements to minimize ocular discomfort due to tonometry. Two baseline measurements were made prior to instillation of the drugs, followed by periodic measurements up to 6 hours post-instillation. The test compounds were administered unilaterally as a single 50 μl eye drop; the contralateral eyes received an equal volume of saline.

[3] = target: T1, rat α2B (RNG gene) receptor (Rattus norvegicus, UniProt P19328); assay: RSAT (Receptor Selection and Amplification Technology) assay, alpha 2B; type: cell-based; conditions: ratio of maximal effect to that of standard full agonist oxymetazoline
T1 construct: expressed in transfected cells; host or cells: NIH-3T3 cells, calcium phosphate cotransfection
T1 sequence (P19328 1-453): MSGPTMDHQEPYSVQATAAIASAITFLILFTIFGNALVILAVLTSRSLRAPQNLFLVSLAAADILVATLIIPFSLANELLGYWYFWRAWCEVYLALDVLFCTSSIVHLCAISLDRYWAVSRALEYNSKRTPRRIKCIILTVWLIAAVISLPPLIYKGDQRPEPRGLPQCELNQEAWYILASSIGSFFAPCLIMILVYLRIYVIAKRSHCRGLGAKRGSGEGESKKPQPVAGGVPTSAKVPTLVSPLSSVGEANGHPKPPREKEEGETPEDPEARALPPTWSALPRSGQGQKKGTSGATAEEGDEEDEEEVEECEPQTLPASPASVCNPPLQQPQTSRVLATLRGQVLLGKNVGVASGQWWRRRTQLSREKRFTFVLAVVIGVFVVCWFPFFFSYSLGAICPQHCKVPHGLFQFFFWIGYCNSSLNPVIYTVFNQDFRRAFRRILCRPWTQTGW
Description: This preferential activity can be determined in a variety of functional assays such as Cyclic AMP Production, Shimizu et al, J. Neurochem. […] In the study below, the RSAT assay on cells that have been transiently transfected with the human α2A (c10 gene), rat α2B (RNG gene) and human α2C (c4 gene) receptors was used.
The assay measures a receptor-mediated loss of contact inhibition that results in selective proliferation of receptor-containing cells in a mixed population of confluent cells. The increase in cell number is assessed with an appropriate transfected marker gene such as b-galactosidase, the activity of which can be easily measured in a 96-well format. Receptors that activate the G protein, Gq, elicit this response. Alpha2 receptors, which normally couple to Gi, activate the RSAT response when coexpressed with a hybrid Gq protein that has a Gi receptor recognition domain, called Gq/i5^2.
NIH-3T3 cells are plated at a density of 2×10^6 cells in 15 cm dishes and maintained in Dulbecco's modified Eagle's medium supplemented with 10% calf serum. One day later, cells are cotransfected by calcium phosphate precipitation with mammalian expression plasmids encoding p-SV-b-galactosidase (5-10 mg), receptor (1-2 mg) and G protein (1-2 mg). 40 mg salmon sperm DNA may also be included in the transfection mixture. Fresh media is added on the following day and 1-2 days later, cells are harvested and frozen in 50 assay aliquots. Cells are thawed and 100 ml added to […] aliquots of various concentrations of drugs in triplicate in 96-well dishes. Incubations continue 72-96 hr at 37°. After washing with phosphate-buffered saline, b-galactosidase enzyme activity is determined by adding 200 ml of the chromogenic substrate (consisting of 3.5 mM o-nitrophenyl-b-D-galactopyranoside and 0.5% nonidet P-40 in phosphate buffered saline), incubating overnight at 30° and measuring optical density at 420 nm. The absorbence is a measure of enzyme activity, which depends on cell number and reflects a receptor-mediated cell proliferation. The EC50 and maximal effect of each drug at each alpha2 receptor is determined. The efficacy or intrinsic activity is calculated as a ratio of the maximal effect of the drug to the maximal effect of a standard full agonist for each receptor subtype.

[4] = system: conscious cynomolgus monkeys; assay: Sedation score during the IOP experiments; type: in vivo, cynomolgus monkey; design: key to Sedation (0-4): 0=alert, typical vocalization, movement, etc.; 1=calm, less movement; 2=slightly sedated, some vocalization, responsive to stimulation; 3=sedated, no vocalization, some response to stimulation; 4=asleep
Description: At the same time, sedation was measured and assessed according to the following score: 0=alert, typical vocalization, movement, etc.; 1=calm, less movement; 2=slightly sedated, some vocalization, responsive to stimulation; 3=sedated, no vocalization, some response to stimulation; 4=asleep.

SMILES	Maximum % Decrease From Pretreatment Levels, Heart Rate ([1]; i.v. 500 μg/kg)	Maximum % Decrease From Pretreatment Levels, Mean Arterial Blood Pressure ([1]; i.v. 500 μg/kg)	inhibition in vivo at 1 % [2] [%]	Intrinsic Activity Relative to Oxymetazoline, Alpha 2B [3]	Sedation (0-4) ([4]; ocular dose 0.3%)	Sedation (0-4) ([4]; ocular dose 1%)	inhibition in vivo at 1 % ([2]; 6 h) [%]	Maximum % Decrease From Pretreatment Levels, Heart Rate ([1]; i.v. 50 μg/kg) [%]	Maximum % Decrease From Pretreatment Levels, Mean Arterial Blood Pressure ([1]; i.v. 50 μg/kg) [%]	further results
c1nc(CC2CCc3sccc3C2)c[nH]1 (stereo not shown) [Example B-9a, 4(5)-(4,5,6,7-tetrahydrobenzo[b]thiophen-5-ylmethyl)-1H-imidazole]	+23.8 ± 4.4* %	+10.8 ± 3.2* %	26.8 ± 5.4	0.46	0	0	–	–	–	inhibition in vivo at 0.03 % ([2]; ocular dose 0.03%): 17.6 ± 1.7%; inhibition in vivo at 0.1 % [2]: 26.7 ± 6.1%; inhibition in vivo at 0.3 % [2]: 24.8 ± 3.3%; Sedation (0-4) ([4]; ocular dose 0.03%): 0; Sedation (0-4) ([4]; ocular dose 0.1%): 0
c1ccc2c(c1)CC[C@@H](Cc1c[nH]cn1)C2 [Example J-3, (R)-4(5)-(1,2,3,4-tetrahydronaphthalen-2-ylmethyl)-1H-imidazole]	+10.6 ± 6.0* %	+1.0 ± 2.1* %	–	1	0	–	–	–	–	Sedation (0-4) ([4]; ocular dose 0.03%): 0
c1ccc2c(c1)CC(Cc1c[nH]cn1)CO2 (stereo not shown) [Example B-2d, 4(5)-chroman-3-ylmethyl-1H-imidazole]	+15.5 ± 3.4* %	+8.9 ± 3.4* %	–	0.6	0	0	18.1 ± 5.2	–	–	inhibition in vivo at 0.1 % ([2]; 6 h): 22 ± 4.6%; inhibition in vivo at 0.3 % ([2]; 6 h): 17 ± 4.2%; Sedation (0-4) ([4]; ocular dose 0.1%): 0
c1ccc(Cc2c[nH]cn2)cc1 [Example C-8, 4(5)-benzyl-1H-imidazole]	16.6 ± 1.9%	5.5 ± 2.7%	31.2 ± 3.3	0.9	–	0	–	–	–	–
Cl.c1ccc2c(c1)CC(Cc1c[nH]cn1)CS2 (stereo not shown) [Example B-6, 4(5)-thiochrom-3-ylmethyl-1H-imidazole, hydrogen chloride salt]	–	–	–	0.35	0	0	22.1 ± 6.3	–	–	inhibition in vivo at 0.3 % ([2]; 6 h): 13.8 ± 2.4%
c1ccc2c(c1)CCC(Cc1c[nH]cn1)C2 (stereo not shown) [Example B-3b, 4(5)-(1,2,3,4-tetrahydronaphthalen-2-ylmethyl)-1H-imidazole]	–	–	–	0.7	0	–	–	10.0 ± 2.8	2.4 ± 4.3	inhibition in vivo at 0.1 % ([2]; 6 h): 25.9 ± 3.5%; inhibition in vivo at 0.3 % ([2]; 6 h): 31.2 ± 4.3%; Sedation (0-4) ([4]; ocular dose 0.1%): 0
c1nc(CC2CCCCC2)c[nH]1 [Example J-1, 4(5)-cyclohexylmethyl-1H-imidazole]	7 ± 4%	13 ± 3%	–	0.83	–	0	26 ± 5	6 ± 2	4 ± 2	Maximum % Decrease From Pretreatment Levels, Heart Rate ([1]; i.v. 17 μg/kg): 13 ± 4%; Maximum % Decrease From Pretreatment Levels, Mean Arterial Blood Pressure ([1]; i.v. 17 μg/kg): 7 ± 5.3%; Maximum % Decrease From Pretreatment Levels, Heart Rate ([1]; i.v. 167 μg/kg): 3 ± 3%; Maximum % Decrease From Pretreatment Levels, Mean Arterial Blood Pressure ([1]; i.v. 167 μg/kg): 7 ± 5%; inhibition in vivo at 3 % ([2]; 6 h): 33 ± 3%; Sedation (0-4) ([4]; ocular dose 3%): 0
c1nc(Cc2ccsc2)c[nH]1 [Example C-1, 4(5)-thiophen-3-ylmethyl-1H-imidazole]	+11 ± 9* %	+5 ± 8* %	25 ± 4	0.83	–	0	–	12 ± 4	12.8 ± 12	inhibition in vivo at 3 % [2]: 29 ± 4%; Sedation (0-4) ([4]; ocular dose 3%): 0
Clc1ccc(Cc2c[nH]cn2)s1 [Example C-4, 4(5)-(5-chlorothiophen-2-ylmethyl)-1H-imidazole]	10.9 ± 3.6%	5.3 ± 2.9%	29.3 ± 4.9	0.82	0	0	–	–	–	inhibition in vivo at 0.3 % [2]: 17.7 ± 4%
Cc1ccsc1Cc1cnc[nH]1 [4(5)-(3-methyl-thiophen-2-ylmethyl)-1H-imidazole, reference compound]	–	–	–	1.4	–	–	–	23 ± 4	9 ± 3	Maximum % Decrease From Pretreatment Levels, Heart Rate ([1]; i.v. 167 μg/kg): 32 ± 8%; Maximum % Decrease From Pretreatment Levels, Mean Arterial Blood Pressure ([1]; i.v. 167 μg/kg): 8 ± 6%; effect on heart rate (in words) ([1]; intravenous administration, monkeys): weak effect on heart rate
Cc1ccc(Cc2c[nH]cn2)o1 [Example C-7, 4(5)-(5-methylfuran-2-ylmethyl)-1H-imidazole]	6.1 ± 3.7%	3.0 ± 3.9%	–	0.73	–	0	32.3 ± 5.7	–	–	–
c1ccc(C2C3CCC(C3)C2/N=C2/NCCO2)cc1 [Example D-1, oxazolidin-2-ylidene-(3-phenylbicyclo[2.2.1]hept-2-yl) amine]	–	–	25.6 ± 3.9	0.47	–	0	–	–	–	–
